Results on eleven molecules are retold here after US9938272B2, “Hydrazine compound as blood coagulation factor Xa inhibitor” (NORTH CHINA PHARMACEUTICAL COMPANY., LTD., priority 2014, dated 2018).

The structures appear in SMILES notation. Where only a bound is given, the exact number is not on record here.

For data set [1] the following is noted: terminal phase; cited from earlier work.
Data set [2] concerns the target human Factor Xa (Homo sapiens (Human), UniProt P00742). Kind of data set: Human factor Xa chromogenic assay. It is filed as biochemical. The note with it: substrate S-2222, read-out: hfXa Ki.
Data set [3] has as its target human trypsin (Homo sapiens, UniProt P07477). In words: Human trypsin assay. Type of data set: biochemical. To be noted: substrate S-2222.
Data set [4] concerns the target prothrombinase (Homo sapiens (Human), UniProt P00742). In words: Prothrombinase assay (thrombin generation). It is filed as biochemical. To be noted: human factor Xa with human platelets, prothrombin, substrate S-2238.
Data set [5] has as its target human thrombin (Homo sapiens (Human), UniProt P00734). In words: Human thrombin assay. It is filed as biochemical. To be noted: substrate S-2238.
The target in data set [6] is rat Factor Xa (Rattus norvegicus (Rat), UniProt Q63207). Kind of data set: Rat factor Xa chromogenic assay. Type of data set: biochemical. The note with it: substrate S-2222, read-out: rfXa Ki.
Sequence of rat Factor Xa (Q63207 232-482): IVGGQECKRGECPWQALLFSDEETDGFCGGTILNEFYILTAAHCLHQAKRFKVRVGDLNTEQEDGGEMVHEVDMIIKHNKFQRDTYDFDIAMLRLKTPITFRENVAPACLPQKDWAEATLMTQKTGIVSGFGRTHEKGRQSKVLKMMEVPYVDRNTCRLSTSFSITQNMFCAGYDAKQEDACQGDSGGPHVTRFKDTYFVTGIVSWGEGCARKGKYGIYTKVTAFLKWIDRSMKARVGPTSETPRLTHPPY
Sequence of rat Factor Xa (Q63207 41-180): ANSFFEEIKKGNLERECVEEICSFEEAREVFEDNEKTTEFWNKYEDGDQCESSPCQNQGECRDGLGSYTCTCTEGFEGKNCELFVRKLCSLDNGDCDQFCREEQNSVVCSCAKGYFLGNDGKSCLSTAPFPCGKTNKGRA
For data set [7] the following is noted: cited from earlier work.

Sequence of prothrombinase (P00742 235-488): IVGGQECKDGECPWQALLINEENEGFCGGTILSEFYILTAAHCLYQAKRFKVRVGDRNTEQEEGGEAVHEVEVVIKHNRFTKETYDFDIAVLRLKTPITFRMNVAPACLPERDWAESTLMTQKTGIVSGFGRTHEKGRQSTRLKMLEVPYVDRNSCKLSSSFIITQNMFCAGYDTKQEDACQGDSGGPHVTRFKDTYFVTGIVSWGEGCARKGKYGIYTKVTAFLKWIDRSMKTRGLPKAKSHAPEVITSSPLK
Sequence of prothrombinase (P00742 41-179): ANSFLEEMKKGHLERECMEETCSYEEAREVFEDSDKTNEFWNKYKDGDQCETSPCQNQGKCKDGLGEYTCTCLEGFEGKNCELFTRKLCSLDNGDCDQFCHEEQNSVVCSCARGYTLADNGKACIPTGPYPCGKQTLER
Sequence of prothrombinase (P12259 29-737 partner): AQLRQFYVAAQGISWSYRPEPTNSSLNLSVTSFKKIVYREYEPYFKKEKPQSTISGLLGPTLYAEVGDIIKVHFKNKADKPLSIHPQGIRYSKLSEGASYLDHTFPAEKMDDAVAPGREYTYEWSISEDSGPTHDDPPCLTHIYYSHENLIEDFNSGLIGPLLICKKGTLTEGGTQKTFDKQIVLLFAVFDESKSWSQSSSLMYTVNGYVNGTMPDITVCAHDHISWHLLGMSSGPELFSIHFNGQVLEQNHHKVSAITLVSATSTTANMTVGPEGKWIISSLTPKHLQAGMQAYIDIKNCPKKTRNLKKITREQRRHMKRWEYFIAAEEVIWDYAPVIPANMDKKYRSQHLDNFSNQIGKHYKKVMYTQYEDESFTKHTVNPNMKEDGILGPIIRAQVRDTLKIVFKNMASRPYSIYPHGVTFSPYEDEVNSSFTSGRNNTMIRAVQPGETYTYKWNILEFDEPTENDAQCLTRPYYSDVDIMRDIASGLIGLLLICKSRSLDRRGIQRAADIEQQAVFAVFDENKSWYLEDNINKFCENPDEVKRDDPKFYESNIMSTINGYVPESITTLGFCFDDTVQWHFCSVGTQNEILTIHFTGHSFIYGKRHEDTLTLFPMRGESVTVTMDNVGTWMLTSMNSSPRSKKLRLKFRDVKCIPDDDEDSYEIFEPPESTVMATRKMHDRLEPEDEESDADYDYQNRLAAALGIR
Sequence of prothrombinase (P12259 1574-2224 partner): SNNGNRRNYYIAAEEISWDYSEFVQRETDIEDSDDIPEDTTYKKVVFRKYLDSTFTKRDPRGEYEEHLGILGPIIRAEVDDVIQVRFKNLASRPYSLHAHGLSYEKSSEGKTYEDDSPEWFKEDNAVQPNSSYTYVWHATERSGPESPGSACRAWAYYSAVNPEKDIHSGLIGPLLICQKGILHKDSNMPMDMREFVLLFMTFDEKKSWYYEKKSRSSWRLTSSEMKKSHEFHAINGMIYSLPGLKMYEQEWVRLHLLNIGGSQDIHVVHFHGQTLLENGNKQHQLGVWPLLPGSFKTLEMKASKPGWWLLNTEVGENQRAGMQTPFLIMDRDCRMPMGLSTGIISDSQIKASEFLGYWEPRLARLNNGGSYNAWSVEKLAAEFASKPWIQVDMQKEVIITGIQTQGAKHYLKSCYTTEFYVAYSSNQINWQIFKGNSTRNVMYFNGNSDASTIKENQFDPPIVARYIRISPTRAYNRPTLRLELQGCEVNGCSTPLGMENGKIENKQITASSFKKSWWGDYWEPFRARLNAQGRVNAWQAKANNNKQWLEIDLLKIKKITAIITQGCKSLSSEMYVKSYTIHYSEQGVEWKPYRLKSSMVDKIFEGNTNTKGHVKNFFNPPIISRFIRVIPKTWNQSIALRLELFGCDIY
Sequence of human Factor Xa (P00742 235-488): as the sequence (P00742 235-488) above
Sequence of human Factor Xa (P00742 41-179): as the sequence (P00742 41-179) above

On to `COc1ccc(-n2nc(C(N)=O)c3c2C(=O)N(c2ccc(N4CCCCC4=O)cc2)CC3)cc1` [Apixaban, apixaban], for which, in data set [1], the “mean elimination t½” value is 8 to 15 h.
As a reminder, the Ki is the equilibrium dissociation constant of an inhibitor or competing ligand from its target. With `NC(=O)c1nn(-c2ccc(OC(F)F)cc2)c2c1CCN(C1CCN(N3CCOCC3=O)CC1)C2=O` [Example 11, 1-(4-(Difluoromethoxy)phenyl)-7-oxo-6-(1-(3-oxomorpholino)piperidin-4-yl)-4,5,6,7-tetra hydro-1H-pyrazolo[3,4-c]pyridine-3-carboxamide], the Ki in data set [2] was at most 10 nM; in data set [3] it was at least 1000 nM; in data set [4], at most 10 nM; in data set [5], at least 1000 nM; in data set [6], 10 to 50 nM.
For `O=C1c2c(c(C(F)(F)F)nn2-c2ccc3cc(Cl)ccc3c2)CCN1C1CCN(N2CCOCC2=O)CC1` [Example 24, 4-(4-(1-(6-Chloronaphthalen-2-yl)-7-oxo-3-(trifluoromethyl)-4,5-dihydro-1H-pyrazolo[3,4-c]pyridin-6(7H)-yl)piperidin-1-yl)morpholin-3-one], the Ki in data set [2] is at most 10 nM; in data set [3], at least 1000 nM; in data set [4], at most 10 nM; in data set [5], at least 1000 nM; in data set [6], at most 10 nM.
Regarding `COc1ccc(-n2nc(C(F)(F)F)c3c2C(=O)N(C2CCN(N4CCCC4=O)CC2)CC3)cc1` [Example 3, 1-(4-Methoxyphenyl)-6-(1-(2-oxopyrrolidin-1-yl)piperidin-4-yl)-3-(trifluoromethyl)-5,6-dihydro-1H-pyrazolo[3,4-c]pyridin-7(4H)-one], the Ki in data set [2] is at most 10 nM; in data set [3] it was at least 1000 nM; in data set [4], at most 10 nM; in data set [5], at least 1000 nM; in data set [6], at most 10 nM.
`NC(=O)c1cccc(-n2nc(C(F)(F)F)c3c2C(=O)N(C2CCN(N4CCOCC4=O)CC2)CC3)c1` [Example 31, 3-(7-Oxo-6-(1-(3-oxomorpholino)piperidin-4-yl)-3-(trifluoromethyl)-4,5,6,7-tetrahydro-1H-pyrazolo[3,4-c]pyridin-1-yl)benzamide]: the Ki in data set [2] was at most 10 nM; in data set [3], at least 1000 nM; in data set [4], 10 to 50 nM; in data set [5], at least 1000 nM; in data set [6] it was 10 to 50 nM.
Take `O=C(NC[C@H]1CN(c2ccc(N3CCOCC3=O)cc2)C(=O)O1)c1ccc(Cl)s1` [rivaroxaban]: the water solubility entry in data set [7] is “limited”.
For `COc1ccc(-n2nc(C#N)c3c2C(=O)N(C2CCN(N4CCCCC4=O)CC2)CC3)cc1` [Example 5, 1-(4-Methoxyphenyl)-7-oxo-6-(2′-oxo-[1,1′-bipiperidin]-4-yl)-4,5,6,7-tetrahydro-1H-pyrazolo[3,4-c]pyridine-3-carbonitrile], the Ki in data set [2] is 10 to 50 nM; in data set [3], at least 1000 nM; in data set [4], at most 10 nM; in data set [5], at least 1000 nM; in data set [6] it was 10 to 50 nM.
In the case of `COc1ccc(-n2nc(C(F)(F)F)c3c2C(=O)N(C2CCN(N4CCOCC4=O)CC2)CC3)cc1F` [Example 28, 4-(4-(1-(3-Fluoro-4-methoxyphenyl)-7-oxo-3-(trifluoromethyl)-4,5-dihydro-1H-pyrazolo[3,4-c]pyridin-6(7H)-yl)piperidin-1-yl)morpholin-3-one], the Ki in data set [2] was at most 10 nM; in data set [3], at least 1000 nM; in data set [4] it was at most 10 nM; in data set [5], at least 1000 nM; in data set [6], at most 10 nM.
As for `COc1ccc(-n2nc(/C(N)=N\C#N)c3c2C(=O)N(C2CCN(N4CCCCC4=O)CC2)CC3)cc1` [Example 6, N′-Cyano-1-(4-methoxyphenyl)-7-oxo-6-(2′-oxo-[1,1′-bipiperidin]-4-yl)-4,5,6,7-tetrahydro-1H-pyrazolo[3,4-c]pyridine-3-carboximidamide], the Ki was at most 10 nM in data set [2]; at least 1000 nM in data set [3]; at most 10 nM in data set [4]; at least 1000 nM in data set [5]; 10 to 50 nM in data set [6].
For the molecule `COc1ccc(-n2nc(C(N)=O)c3c2C(=O)N(C2CCN(N4CCCCC4=O)CC2)CC3)cc1` [Example 4, 1-(4-Methoxyphenyl)-7-oxo-6-(2′-oxo-[1,1′-bipiperidin]-4-yl)-4,5,6,7-tetrahydro-1H-pyrazolo[3,4-c]pyridine-3-carboxamide], the Ki in data set [2] is at most 10 nM; in data set [3] it was at least 1000 nM; in data set [4], at most 10 nM; in data set [5], at least 1000 nM; in data set [6], 10 to 50 nM.
Consider `COc1ccc(-n2nc(C(N)=O)c3c2C(=O)N(N2CCC(N4CCCCC4=O)CC2)CC3)cc1` [Example 14, 1-(4-Methoxyphenyl)-7-oxo-6-(2-oxo-[1,4′-bipiperidin]-1′-yl)-4,5,6,7-tetrahydro-1H-pyrazolo[3,4-c]pyridine-3-carboxamide], for which the Ki is at most 10 nM in data set [2]; at least 1000 nM in data set [3]; at most 10 nM in data set [4]; at least 1000 nM in data set [5]; 50 to 1000 nM in data set [6].
